Results on 23 molecules are retold here after US9611248B2, “Chemical compounds” (Syngenta Participations AG, priority 2013, dated 2017).

This test has as its system a variety of test species. Briefly: Post-emergence herbicidal activity. The class given is in vivo. Also on record: key to ABUTH (Abutilon theophrasti) damage score / AMARE (Amaranthus retroflexus) damage score / ALOMY (Alopecurus myosuroides) damage score / ECHCG (Echinochloa crus-galli) damage score / ZEAMX (Zea mays) damage score / SOLNI (Solanum nigrum) damage score: 0 = no damage to plant, 5 = total damage to plant. To be noted: rate 1000 g/ha, evaluated after 13 days. An outline of the steps:
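Plants grown for 8 days in pots were sprayed post-emergence with compound in acetone/water (50:50) containing 0.5% Tween 20. They were kept in a glasshouse at 24/16 °C day/night, 14 h light, 65% humidity, watered twice daily. Damage was scored after 13 days (0 none to 5 total).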
On to `COC1=C(C)C(=O)N(c2cc(C(F)(F)F)c(/C(C)=C/C#N)cn2)C1O` (stereo not drawn) [AD38, (E)-3-[6-(2-hydroxy-3-methoxy-4-methyl-5-oxo-2H-pyrrol-1-yl)-4-(trifluoromethyl)-3-pyridyl]but-2-enenitrile], for which the “ABUTH (Abutilon theophrasti) damage score” value (shortened to “ABUTH”) is reported as 5, the “ALOMY (Alopecurus myosuroides) damage score” value (shortened to “ALOMY”) stood at 5, the “AMARE (Amaranthus retroflexus) damage score” value (shortened to “AMARE”) was 5 and the “ECHCG (Echinochloa crus-galli) damage score” value (shortened to “ECHCG”) worked out at 5. In addition, the “SETFA (Setaria faberi) damage score” value was 5 and the “ZEAMX (Zea mays) damage score” value was found to be 0.

For `COC1=C(C)C(=O)N(c2cc(OC(F)(F)F)ccn2)C1O` (stereo not drawn) [AD39], the “ABUTH” value is 4, the “ALOMY” value is reported as 4, the “AMARE” value stood at 2 and the “ECHCG” value is 4. Moreover, the “SETFA (Setaria faberi) damage score” value is given as 4 and the “ZEAMX (Zea mays) damage score” value was determined as 0.

As to `COC1=C(C)C(=O)N(c2cc(C(C)(C)C)ccn2)C1O` (stereo not drawn) [AD40], the “ABUTH” value came out at 5, the “ALOMY” value was determined as 5, the “AMARE” value worked out at 5 and the “ECHCG” value worked out at 5. For the same molecule, the “SETFA (Setaria faberi) damage score” value was 5 and the “ZEAMX (Zea mays) damage score” value was 3.

Regarding `C=CCOC1=C(C)C(=O)N(c2cc(C(F)(F)F)ccn2)C1O` (stereo not drawn) [AD42], the “ABUTH” value worked out at 5, the “ALOMY” value was found to be 4, the “AMARE” value was determined as 5 and the “ECHCG” value is reported as 5. Further, the “SETFA (Setaria faberi) damage score” value is 5 and the “ZEAMX (Zea mays) damage score” value is recorded as 2.

Consider `CC1=C(OCC(F)(F)F)C(O)N(c2cc(C(F)(F)F)ccn2)C1=O` (stereo not drawn) [AD44, 2-hydroxy-4-methyl-3-(2,2,2-trifluoroethoxy)-1-[4-(trifluoromethyl)-2-pyridyl]-2H-pyrrol-5-one], for which the “ABUTH” value was found to be 5, the “ALOMY” value is 3, the “AMARE” value is recorded as 5 and the “ECHCG” value is given as 4. The “SETFA (Setaria faberi) damage score” value came to 5 and the “ZEAMX (Zea mays) damage score” value is 1.

`CCOC1=C(C)C(=O)N(c2cc(C(F)(F)F)ccn2)C1O` (stereo not drawn) [AD45, 3-ethoxy-2-hydroxy-4-methyl-1-[4-(trifluoromethyl)-2-pyridyl]-2H-pyrrol-5-one]: the “ABUTH” value was found to be 5, the “ALOMY” value was 4, the “AMARE” value is given as 5 and the “ECHCG” value is 5. For the same molecule, the “SETFA (Setaria faberi) damage score” value worked out at 3 and the “ZEAMX (Zea mays) damage score” value stood at 1.

For `COC1=C(C)C(=O)N(c2ccc(OC(F)(F)F)cn2)C1O` (stereo not drawn) [AD47], the “ABUTH” value was 5, the “ALOMY” value is on record as 3, the “AMARE” value is recorded as 5 and the “ECHCG” value worked out at 3. Further, the “SETFA (Setaria faberi) damage score” value was found to be 4 and the “ZEAMX (Zea mays) damage score” value amounted to 0.

On to `COC1=C(C)C(=O)N(c2cc(C(F)(F)F)c(I)cn2)C1O` (stereo not drawn) [AD51], for which the “ABUTH” value came out at 5, the “ALOMY” value amounted to 4, the “AMARE” value is listed as 5 and the “ECHCG” value is 5. The “SETFA (Setaria faberi) damage score” value stood at 5 and the “ZEAMX (Zea mays) damage score” value was 1.

Take `COC1=C(C)C(=O)N(c2cc(C(C)(C)CCl)ccn2)C1O` (stereo not drawn) [AD52]: the “ABUTH” value was determined as 5, the “ALOMY” value amounted to 5, the “AMARE” value was 4 and the “ECHCG” value was determined as 5. Besides, the “SETFA (Setaria faberi) damage score” value was found to be 5 and the “ZEAMX (Zea mays) damage score” value came to 1.

`COC1=C(C)C(=O)N(c2cc(C(F)(F)F)c(C(=O)NC(C)C)cn2)C1O` (stereo not drawn) [AD53]: the “ABUTH” value stood at 5, the “ALOMY” value is 5, the “AMARE” value amounted to 5 and the “ECHCG” value came out at 5. Further, the “SETFA (Setaria faberi) damage score” value was 5 and the “ZEAMX (Zea mays) damage score” value was determined as 5.

Turning to `COC1=C(C)C(=O)N(c2cc(C(F)(F)F)c(C(=O)NC(C)(C)C)cn2)C1O` (stereo not drawn) [AD54], the “ABUTH” value is listed as 5, the “ALOMY” value is on record as 5, the “AMARE” value was 5 and the “ECHCG” value is listed as 5. Moreover, the “SETFA (Setaria faberi) damage score” value is recorded as 5 and the “ZEAMX (Zea mays) damage score” value came to 5.

As for `CCOc1cnc(N2C(=O)C(C)=C(OC)C2O)cc1C(F)(F)F` (stereo not drawn) [AD55], the “ABUTH” value is recorded as 5, the “ALOMY” value worked out at 5, the “AMARE” value is reported as 5 and the “ECHCG” value amounted to 5. Besides, the “SETFA (Setaria faberi) damage score” value came out at 5 and the “ZEAMX (Zea mays) damage score” value is given as 3.

Regarding `COC1=C(C)C(=O)N(c2cc(C(F)(F)F)c(OCC(C)C)cn2)C1O` (stereo not drawn) [AD56], the “ABUTH” value amounted to 5, the “ALOMY” value was 5, the “AMARE” value was found to be 5 and the “ECHCG” value is 5. Further, the “SETFA (Setaria faberi) damage score” value is listed as 5 and the “ZEAMX (Zea mays) damage score” value turned out to be 0.

As for `COC1=C(C)C(=O)N(c2cc(C(F)(F)F)c(OCC3CCCO3)cn2)C1O` (stereo not drawn) [AD57], the “ABUTH” value came to 5, the “ALOMY” value came to 4, the “AMARE” value is listed as 5 and the “ECHCG” value was 5. In addition, the “SETFA (Setaria faberi) damage score” value came out at 5 and the “ZEAMX (Zea mays) damage score” value worked out at 1.

With `COC1=C(C)C(=O)N(c2cc(C(F)(F)F)c(/C(C)=C\C#N)cn2)C1O` (stereo not drawn) [AD58, (Z)-3-[6-(2-hydroxy-3-methoxy-4-methyl-5-oxo-2H-pyrrol-1-yl)-4-(trifluoromethyl)-3-pyridyl]but-2-enenitrile], the “ABUTH” value is on record as 5, the “ALOMY” value was 4, the “AMARE” value came to 5 and the “ECHCG” value worked out at 5. Further, the “SETFA (Setaria faberi) damage score” value came to 5 and the “ZEAMX (Zea mays) damage score” value amounted to 2.

Turning to `COC1=C(C)C(=O)N(c2cc(C(F)(F)F)c(-c3ccc(F)cc3)cn2)C1O` (stereo not drawn) [AD59], the “ABUTH” value stood at 5, the “ALOMY” value came out at 4, the “AMARE” value amounted to 5 and the “ECHCG” value is given as 4. For the same molecule, the “SETFA (Setaria faberi) damage score” value is on record as 5 and the “ZEAMX (Zea mays) damage score” value is 1.

With `COC1=C(C)C(=O)N(c2cc(C)c(-c3ccc(F)cc3)cn2)C1O` (stereo not drawn) [AD60], the “ABUTH” value was found to be 5, the “ALOMY” value was 2, the “AMARE” value amounted to 5 and the “ECHCG” value is listed as 1. Also, the “SETFA (Setaria faberi) damage score” value is listed as 4 and the “ZEAMX (Zea mays) damage score” value is recorded as 1.

Turning to `COC1=C(C)C(=O)N(c2cc(C)c(-c3ccsc3)cn2)C1O` (stereo not drawn) [AD61], the “ABUTH” value came to 5, the “ALOMY” value stood at 1, the “AMARE” value is recorded as 5 and the “ECHCG” value came out at 3. Moreover, the “SETFA (Setaria faberi) damage score” value is given as 4 and the “ZEAMX (Zea mays) damage score” value is on record as 1.

On to `CCc1cc(N2C(=O)C(C)=C(OC)C2O)ncc1-c1ccc(F)cc1` (stereo not drawn) [AD62], for which the “ABUTH” value is listed as 4, the “ALOMY” value was 3, the “AMARE” value was 5 and the “ECHCG” value is reported as 3. Also, the “SETFA (Setaria faberi) damage score” value amounted to 5 and the “ZEAMX (Zea mays) damage score” value is 0.

Turning to `COC1=C(C)C(=O)N(c2cc(C)c(-c3ccccc3)cn2)C1O` (stereo not drawn) [AD63], the “ABUTH” value is recorded as 5, the “ALOMY” value amounted to 3, the “AMARE” value came out at 5 and the “ECHCG” value came out at 3. Moreover, the “SETFA (Setaria faberi) damage score” value was 5 and the “ZEAMX (Zea mays) damage score” value was determined as 1.

Take `COC1=C(C)C(=O)N(c2cc3c(cn2)CCCC3)C1O` (stereo not drawn) [AD64]: the “ABUTH” value turned out to be 4, the “ALOMY” value turned out to be 1, the “AMARE” value worked out at 2 and the “ECHCG” value amounted to 3. The “SETFA (Setaria faberi) damage score” value is 5 and the “ZEAMX (Zea mays) damage score” value amounted to 1.

With `COC1=C(C)C(=O)N(c2cc(C)c(-c3ccc(F)cc3C)cn2)C1O` (stereo not drawn) [AD65], the “ABUTH” value was 4, the “ALOMY” value came out at 2, the “AMARE” value came out at 5 and the “ECHCG” value stood at 4. Also, the “SETFA (Setaria faberi) damage score” value was 5 and the “ZEAMX (Zea mays) damage score” value was found to be 1.

On to `COC1=C(C)C(=O)N(c2cc(C)c(-c3ccccc3C)cn2)C1O` (stereo not drawn) [AD66], for which the “ABUTH” value came to 4, the “ALOMY” value worked out at 1, the “AMARE” value was found to be 5 and the “ECHCG” value was 4. The “SETFA (Setaria faberi) damage score” value was determined as 5 and the “ZEAMX (Zea mays) damage score” value was determined as 0.
